In article PMC5975062 (Alzheimer's & Dementia : Translational Research & Clinical …, 2015):
Marks after values point to notes of the source that are not given here.

Assay: Safety and tolerability
Assay type: in vivo, human
[1] = 20 mg bid 11 d solution, fasted, nonelderly
[2] = 50 mg bid 11 d solution, fasted, nonelderly
[3] = 100 mg bid 11 d solution, fed, nonelderly
[4] = 200 mg bid 7 d capsule, fasted, elderly
[5] = 200 mg bid 11 d solution, fasted, nonelderly
[6] = 300 mg bid 7 d capsule, fasted, elderly
[7] = 400 mg bid 11 d capsule, fasted, nonelderly
[8] = 500 mg bid 11 d capsule, fed, nonelderly
[9] = 500 mg bid 11 d tablet, fasted, elderly
[10] = 800 mg bid 11 d tablet, fasted, elderly

CCCOc1ccc([C@H]2CNC(=O)N2c2ccc3[nH]cnc3c2)cc1 [PQ912]
Abdominal pain, number of TEAEs [1]: 1 [1]
Abdominal pain, number of subjects [1]: 1 [1]
Headache, number of TEAEs [1]: 7
Headache, number of subjects [1]: 3
Neck pain, number of TEAEs [1]: 1 [1]
Neck pain, number of subjects [1]: 1 [1]
Number of AEs [1]: 16
Subjects with AEs, number [1]: 7
Subjects with AEs, percentage of total subjects [1]: 87.5%
Abdominal pain, number of TEAEs [2]: 1 [1]
Abdominal pain, number of subjects [2]: 1 [1]
Chest pain, number of TEAEs [2]: 1 [1]
Chest pain, number of subjects [2]: 1 [1]
Dizziness, number of TEAEs [2]: 1 [1]
Dizziness, number of subjects [2]: 1 [1]
Headache, number of TEAEs [2]: 8
Headache, number of subjects [2]: 4
Injection site pain, number of TEAEs [2]: 6
Injection site pain, number of subjects [2]: 5
Nausea, number of TEAEs [2]: 1 [1]
Nausea, number of subjects [2]: 1 [1]
Number of AEs [2]: 22
Subjects with AEs, number [2]: 7
Subjects with AEs, percentage of total subjects [2]: 87.5%
Back pain, number of TEAEs [3]: 1 [1]
Back pain, number of subjects [3]: 1 [1]
Chest pain, number of TEAEs [3]: 1 [1]
Chest pain, number of subjects [3]: 1 [1]
Headache, number of TEAEs [3]: 4
Headache, number of subjects [3]: 3
Injection site pain, number of TEAEs [3]: 3 [3]
Injection site pain, number of subjects [3]: 3 [3]
Number of AEs [3]: 16
Presyncope, number of TEAEs [3]: 6 [6]
Presyncope, number of subjects [3]: 6 [6]
Subjects with AEs, number [3]: 8
Subjects with AEs, percentage of total subjects [3]: 100.0%
Number of AEs [4]: 3
Subjects with AEs, number [4]: 3
Subjects with AEs, percentage of total subjects [4]: 50.0%
Abdominal pain, number of TEAEs [5]: 1 [1]
Abdominal pain, number of subjects [5]: 1 [1]
Back pain, number of TEAEs [5]: 1 [1]
Back pain, number of subjects [5]: 1 [1]
Chest pain, number of TEAEs [5]: 1 [1]
Chest pain, number of subjects [5]: 1 [1]
Diarrhea, number of TEAEs [5]: 1 [1]
Diarrhea, number of subjects [5]: 1 [1]
Flatulence, number of TEAEs [5]: 1 [1]
Flatulence, number of subjects [5]: 1 [1]
Nausea, number of TEAEs [5]: 1 [1]
Nausea, number of subjects [5]: 1 [1]
Neck pain, number of TEAEs [5]: 1 [1]
Neck pain, number of subjects [5]: 1 [1]
Number of AEs [5]: 11
Subjects with AEs, number [5]: 6
Subjects with AEs, percentage of total subjects [5]: 75.0%
Back pain, number of TEAEs [6]: 1 [1]
Back pain, number of subjects [6]: 1 [1]
Headache, number of TEAEs [6]: 4 [4]
Headache, number of subjects [6]: 4 [4]
Injection site pain, number of TEAEs [6]: 4 [4]
Injection site pain, number of subjects [6]: 4 [4]
Number of AEs [6]: 13
Pain in extremity, number of TEAEs [6]: 2
Pain in extremity, number of subjects [6]: 1
Subjects with AEs, number [6]: 6
Subjects with AEs, percentage of total subjects [6]: 75.0%
Abdominal pain, number of TEAEs [7]: 1 [1]
Abdominal pain, number of subjects [7]: 1 [1]
Back pain, number of TEAEs [7]: 1 [1]
Back pain, number of subjects [7]: 1 [1]
Headache, number of TEAEs [7]: 4
Headache, number of subjects [7]: 3
Number of AEs [7]: 9
Presyncope, number of TEAEs [7]: 1 [1]
Presyncope, number of subjects [7]: 1 [1]
Subjects with AEs, number [7]: 5
Subjects with AEs, percentage of total subjects [7]: 62.5%
Abdominal pain, number of TEAEs [8]: 1 [1]
Abdominal pain, number of subjects [8]: 1 [1]
Abnormal sensation in eye, number of TEAEs [8]: 2 [2]
Abnormal sensation in eye, number of subjects [8]: 2 [2]
Back pain, number of TEAEs [8]: 5
Back pain, number of subjects [8]: 4
Diarrhea, number of TEAEs [8]: 1 [1]
Diarrhea, number of subjects [8]: 1 [1]
Dizziness, number of TEAEs [8]: 2 [2]
Dizziness, number of subjects [8]: 2 [2]
Headache, number of TEAEs [8]: 3 [3]
Headache, number of subjects [8]: 3 [3]
Nausea, number of TEAEs [8]: 1 [1]
Nausea, number of subjects [8]: 1 [1]
Number of AEs [8]: 30 ^‡
Pain in extremity, number of TEAEs [8]: 2 [2]
Pain in extremity, number of subjects [8]: 2 [2]
Subjects with AEs, number [8]: 8
Subjects with AEs, percentage of total subjects [8]: 100.0%
Abdominal pain, number of TEAEs [9]: 1 [1]
Abdominal pain, number of subjects [9]: 1 [1]
Back pain, number of TEAEs [9]: 1 [1]
Back pain, number of subjects [9]: 1 [1]
Constipation, number of TEAEs [9]: 2 [2]
Constipation, number of subjects [9]: 2 [2]
Contusion, number of TEAEs [9]: 3
Contusion, number of subjects [9]: 2
Diarrhea, number of TEAEs [9]: 1 [1]
Diarrhea, number of subjects [9]: 1 [1]
Dizziness, number of TEAEs [9]: 2
Dizziness, number of subjects [9]: 1
Headache, number of TEAEs [9]: 4
Headache, number of subjects [9]: 2
Injection site pain, number of TEAEs [9]: 1 [1]
Injection site pain, number of subjects [9]: 1 [1]
Nausea, number of TEAEs [9]: 4
Nausea, number of subjects [9]: 3
Number of AEs [9]: 32
Subjects with AEs, number [9]: 9
Subjects with AEs, percentage of total subjects [9]: 75.0%
Chest pain, number of TEAEs [10]: 2
Chest pain, number of subjects [10]: 1
Constipation, number of TEAEs [10]: 2 [2]
Constipation, number of subjects [10]: 2 [2]
Contusion, number of TEAEs [10]: 1 [1]
Contusion, number of subjects [10]: 1 [1]
Diarrhea, number of TEAEs [10]: 1 [1]
Diarrhea, number of subjects [10]: 1 [1]
Flatulence, number of TEAEs [10]: 3 [3]
Flatulence, number of subjects [10]: 3 [3]
Headache, number of TEAEs [10]: 2 [2]
Headache, number of subjects [10]: 2 [2]
Nausea, number of TEAEs [10]: 2 [2]
Nausea, number of subjects [10]: 2 [2]
Neck pain, number of TEAEs [10]: 1 [1]
Neck pain, number of subjects [10]: 1 [1]
Number of AEs [10]: 34
Pollakiuria, number of TEAEs [10]: 2 [2]
Pollakiuria, number of subjects [10]: 2 [2]
Subjects with AEs, number [10]: 6
Subjects with AEs, percentage of total subjects [10]: 100%
subjects withdrawn because of a TEAE (urticaria papular) (500-mg bid, 11 days, capsule, fed, about 3.5 hours after the 18th dose): One subject
drug-related TEAEs, events (after multiple doses, 102 subjects (PQ912 or placebo)): 113
subjects reporting drug-related TEAEs (after multiple doses, of 102 subjects (PQ912 or placebo)): 47
drug-related TEAEs, events (after single doses, 104 subjects (PQ912 or placebo)): 25
subjects reporting drug-related TEAEs (after single doses, of 104 subjects (PQ912 or placebo)): 16
subjects with clinically significant changes in clinical laboratory parameters (increases in serum potassium, erythrocytes, leukocytes): four subjects
Back pain, number of TEAEs (single 30 mg solution, fasted): 1 [1]
Back pain, number of subjects (single 30 mg solution, fasted): 1 [1]
Number of AEs (single 30 mg solution, fasted): 2
Subjects with AEs, number (single 30 mg solution, fasted): 2
Subjects with AEs, percentage of total subjects (single 30 mg solution, fasted): 33.3%
Back pain, number of TEAEs (single 50 mg solution, fasted): 1 [1]
Back pain, number of subjects (single 50 mg solution, fasted): 1 [1]
Fatigue, number of TEAEs (single 50 mg solution, fasted): 1 [1]
Fatigue, number of subjects (single 50 mg solution, fasted): 1 [1]
Headache, number of TEAEs (single 50 mg solution, fasted): 3
Headache, number of subjects (single 50 mg solution, fasted): 2
Injection site pain, number of TEAEs (single 50 mg solution, fasted): 1 [1]
Injection site pain, number of subjects (single 50 mg solution, fasted): 1 [1]
Nausea, number of TEAEs (single 50 mg solution, fasted): 1 [1]
Nausea, number of subjects (single 50 mg solution, fasted): 1 [1]
Number of AEs (single 50 mg solution, fasted): 11
Subjects with AEs, number (single 50 mg solution, fasted): 5
Subjects with AEs, percentage of total subjects (single 50 mg solution, fasted): 83.3%
Vomiting, number of TEAEs (single 50 mg solution, fasted): 2
Vomiting, number of subjects (single 50 mg solution, fasted): 1
Back pain, number of TEAEs (single 100 mg solution, fasted): 3 [3]
Back pain, number of subjects (single 100 mg solution, fasted): 3 [3]
Fatigue, number of TEAEs (single 100 mg solution, fasted): 1 [1]
Fatigue, number of subjects (single 100 mg solution, fasted): 1 [1]
Number of AEs (single 100 mg solution, fasted): 7
Subjects with AEs, number (single 100 mg solution, fasted): 3
Subjects with AEs, percentage of total subjects (single 100 mg solution, fasted): 37.5%
Back pain, number of TEAEs (single 400 mg solution, fasted): 2 [2]
Back pain, number of subjects (single 400 mg solution, fasted): 2 [2]
Headache, number of TEAEs (single 400 mg solution, fasted): 1 [1]
Headache, number of subjects (single 400 mg solution, fasted): 1 [1]
Injection site pain, number of TEAEs (single 400 mg solution, fasted): 1 [1]
Injection site pain, number of subjects (single 400 mg solution, fasted): 1 [1]
Number of AEs (single 400 mg solution, fasted): 7
Presyncope, number of TEAEs (single 400 mg solution, fasted): 1 [1]
Presyncope, number of subjects (single 400 mg solution, fasted): 1 [1]
Subjects with AEs, number (single 400 mg solution, fasted): 4
Subjects with AEs, percentage of total subjects (single 400 mg solution, fasted): 33.3%
Nausea, number of TEAEs (single 800 mg capsule, fasted): 1 [1]
Nausea, number of subjects (single 800 mg capsule, fasted): 1 [1]
Number of AEs (single 800 mg capsule, fasted): 2
Subjects with AEs, number (single 800 mg capsule, fasted): 1
Subjects with AEs, percentage of total subjects (single 800 mg capsule, fasted): 16.7%
Vomiting, number of TEAEs (single 800 mg capsule, fasted): 1 [1]
Vomiting, number of subjects (single 800 mg capsule, fasted): 1 [1]
Headache, number of TEAEs (single 1200 mg capsule, fed): 1 [1]
Headache, number of subjects (single 1200 mg capsule, fed): 1 [1]
Number of AEs (single 1200 mg capsule, fed): 2
Subjects with AEs, number (single 1200 mg capsule, fed): 1
Subjects with AEs, percentage of total subjects (single 1200 mg capsule, fed): 16.7%
Nausea, number of TEAEs (single 1800 mg tablet, fasted): 2 [2]
Nausea, number of subjects (single 1800 mg tablet, fasted): 2 [2]
Number of AEs (single 1800 mg tablet, fasted): 2
Subjects with AEs, number (single 1800 mg tablet, fasted): 2
Subjects with AEs, percentage of total subjects (single 1800 mg tablet, fasted): 33.3%
overall safety and tolerability (single doses up to 3600 mg, bid doses up to 800 mg): safe and well tolerated
serious adverse events (whole study): no serious adverse events
vital signs, 12-lead ECGs, telemetry, physical examinations (whole study): no clinically significant findings
